According to US10987669B2, “Apparatus and method for detection of tumour cells and circulating tumour cells” (MEDCOM ADVANCE, S.A., priority 2016, dated 2021):

How the values were obtained:
Format in all cases: cell-based
[1] = tested on: MCF7 breast cancer cell line (compared with MCF12A healthy breast cells); experiment: 2-NBD glucose uptake measurements on fixed cells; settings: for Fluorescence intensity of 2-NBDG, cancer versus healthy cells: 300 μM 2-NBDG
Method: MCF12A, a breast mammary epithelia-derived cell line, and MCF7 breast cancer cell line (American Type Culture Collection, ATCC, Manassas, Va., USA), were routinely cultured in DMEM/F-12 supplemented with 20 ng/mL of human epidermal growth factor, 100 ng/mL of cholera toxin, 0.01 mg/mL of bovine insulin, 500 ng/mL of hydrocortisone 95% and 5% donor horse serum; and in EMEM (Eagle's Minimum Essential Medium) supplemented with 10% fetal bovine serum, 0.01 mg/mL human recombinant insulin, 2 mM of L-glutamine and 1% Penicillin-Streptomycin, respectively. Each cell line was cultured in a humidified atmosphere with 5% CO2 at 37° C.
To study the general uptake and retention of glucose, cells were exposed to 300 μM of 2-(N-(7-Nitrobenz-2-oxa-1,3-diazol-4-yl)Amino)-2-Deoxyglucose (2-NBDG) for different incubation times: 1, 5, 10, 20, 30, and 60 min. To achieve higher 2-NBDG accumulation inside MCF7 cells, cells were exposed to different conditions based on the concentrations of dissolved oxygen. The effects on oxygen availability were evaluated by exposing cells to the hyperoxic or hypoxic environment, created by bubbling 2-NBDG incubation media for 20 min with oxygen or nitrogen, respectively. Afterwards, cells were fixed with 4% paraformaldehyde solution in 1×PBS, for 20 min, and then washed 6 times with 1×PBS and mounted onto glass slides with Fluoromount G (Southern Biotech), for the fluorescence measurements.
(§1) Fixed cells were imaged with fluorescence microscopy and then analysed using Image J. Epi-fluorescence microscope NIKON TE2000E equipped with the 465/495 excitation and 515/555 emission filters was used to collect the fluorescence of 2-NBDG. […]
2-(N-(7-Nitrobenz-2-oxa-1,3-diazol-4-yl)Amino)-2-Deoxyglucose (2-NBDG) is chosen as the model metabolism indicator. […] The concentration of 2-NBDG was determined based on the gain of clear visibility on the fluorescence images. The fluorescence intensity was quantified using Image J. The same thresholds were set for fluorescence images of both healthy and cancer cells to remove the background noises. […]

[2] = tested on: co-cultured MCF7 (Qdot685 labelled) cells with MCF12A (Qdot625 labelled) cells; experiment: 2-NBD glucose uptake measurements in co-cultured cells; settings: 300 μM 2-NBDG, 5 min, hyperoxic environment, co-culture
Method: To successfully identify different cell types in a cell mixture, previously functionalized Qdot 625 and 685 were used as the intracellular trackers for MCF12A and MCF7 cells, respectively. 50,000 cells/wells of each type were cultured separately onto glass cover slips inside 12-well plates and left growing for 48 h, at 5% CO2 and 37° C. Then, cells were washed with pre-warmed 1×PBS for 1 minute and 100 nM of each Qdot@amino-PEG was added in the cell growth media, and waited for 1 hour. After the incubation, cells were washed 3 times with 1×PBS. MCF7 (Qdot685 labelled) cells were detached from the surface using Trypsin-EDTA solution 0.25% and re-cultured onto MCF12A (Qdot625 labelled) cells. […]
Co-cultured MCF7 (Qdot685 labelled) cells with MCF12A (Qdot625 labelled) cells were exposed to 300 μM of 2-NBDG for 5 min, under the hyperoxic environment, determined by the previous optimizations. Afterwards, cells were fixed with 4% paraformaldehyde solution in 1×PBS for 20 min, and then washed 6 times with 1×PBS and mounted onto glass slides with Fluoromount G (Southern Biotech), for the fluorescence measurements.
as §1

[3] = tested on: MCF7 and MCF12A cells; experiment: On-line detection of cancer and healthy cells in the detection microfluidic chip; settings: 150 μM 2-NBDG, 5 min, hyperoxic 1×PBS, cells in flow at 0.025 mL/h
Source text: A detection chip based on the hydrodynamic focusing technique was constructed to continuously detect hypermetabolic cancer cells by measuring single cell fluorescence. It consisted of three inlets, a main single channel and an outlet (FIG. 8a). All inlet channels converged in a single one of 75 μm-width, which was widen to 600 μm (detection region). The conformation of the inlet channels ensures the focus of cells into a line, which can be further detected one by one. Depth of the whole microfluidic chip was 75 μm.
For the on-line detection of cancer and healthy cells, MCF12A and MCF7 cells were separately detached from culture flasks, centrifuged at 1,300 rpm for 5 min and resuspended in 1 mL of 1×PBS under hyperoxic conditions. As mentioned above, hyperoxia was achieved by bubbling oxygen into the PBS solution for 20 min. 2-NBDG was then added to achieve 150 μM as the final concentration and incubated with suspended cells for 5 min, as the optimal condition. Afterwards, incubation was stopped by adding 2-fold volume of pre-cooled 1×PBS and non-uptaken 2-NBDG was removed by centrifuging cells at 1,300 rpm for 5 min and suspending in 1×PBS. […] An epi-fluorescence microscope was used to collect the fluorescence of the 2-NBDG uptaken by single cells (both, MCF12A and MCF7). Data was analyzed with Image J software.

## O=[N+]([O-])c1ccc(N[C@H]2C(O)O[C@H](CO)[C@@H](O)[C@@H]2O)c2nonc12 (some centres unmarked) [2-NBDG, 2-(N-(7-Nitrobenz-2-oxa-1,3-diazol-4-yl)Amino)-2-Deoxyglucose]
[1]; 5 min incubation, MCF7 vs MCF12A cultured separately
  Fluorescence intensity of 2-NBDG, cancer versus healthy cells: higher fluorescence compared to healthy cells
[1]; incubation longer than 5 min (up to 60 min), MCF7 vs MCF12A
  Fluorescence intensity of 2-NBDG, cancer versus healthy cells: fluorescence from healthy cells overtakes the cancer cells
[1]; 5 min incubation, hyperoxia compared to control and hypoxia environments
  Fluorescence intensity gap between cancer and healthy cells: further enlarged
[2]
  Fluorescence intensity of 2-NBDG, cancer cell versus surrounded healthy cells: greater fluorescence intensity
[3]
  Single cell fluorescence intensity of 2-NBDG, cancer versus healthy cells: higher fluorescence intensity compared to the healthy ones
